Data on 4 compounds can be found in PMC8509773, “3-Pyridinylidene Derivatives of Chemically Modified Lupane and Ursane Triterpenes as Promising Anticancer Agents by Targeting Apoptosis” (International Journal of Molecular Sciences, 2021).

Broadly, the GI50 is the concentration that inhibits growth by half.

Data set [1] concerns NCI-60 cancer cell line panel. On the set-up: method as in PMID 33970717. As to conditions: earlier study; read-out: GI50 range against NCI-60; cited from earlier work.
Details of data set [2]: method as in PMID 11527742, doi:10.1007/s00044-018-2189-6, PMID 32956968. As to conditions: literature data; cited from earlier work.
Data set [3] concerns chorioallantoic membrane. Put plainly: HET-CAM irritation assay. As to conditions: in vivo. The source says: HET-CAM assay was used in order to assess the toxicity of compounds 6 and 7 (Figure 16); the procedure is a low-cost, unique model in biomedical research that allows the testing of the irritation potency of chemical compounds while simultaneously avoiding in vivo experiments. […] The Luepke scale was used to establish the irritation score: 0–0.9 indicates non-irritant, 1–4.9 indicates weakly irritant, 5–8.9 indicates moderately irritant, and 9–21 means strongly irritant.
Compounds 6 and 7 were also evaluated in terms of biocompatibility on mucosal tissues by using the in vivo Hen’s Egg Chorioallantoic Membrane Test (HET-CAM assay). The assay assesses a potential irritant effect on the vascular plexus of the chorioallantoic membrane. The HET-CAM method was carried out following ICCVAM recommendations published in November 2016 in Appendix G and adapted to our laboratory conditions. Thus, 300 µL of control or test solution, respectively, was applied on CAM and the alterations induced at the CAM level were monitored by means of stereomicroscopy (Discovery 8 Stereomicroscope, Zeiss), registering significant images (Axio CAM 105 color, Zeiss), before the application and after 5 min contact with the samples. All images were processed using Zeiss ZEN software, Gimp 2.8 and ImageJ software. Negative control was represented by distilled water and solvent control DMSO 0.5%, while the positive control by the sodium lauryl sulphate (SLS) 0.5% in distillate water. The test substances were tested in concentrations of 1 µM. The observation time of the produced reactions was 5 min (300 s) and the time, at which the occurrence of a particular reaction took place was recorded in seconds. Finally, the following reactions were monitored: hemorrhage—H (blood vessel bleeding), vascular lysis —L (disintegration of blood vessels), and coagulation —C (intra or extra- vascular protein denaturizing). A variety of analysis methods may be used to assess irritancy potential of test substances. One analysis method that has been used extensively used is an irritation score (IS) calculated according to the following formula: IS=5×301−SecH/300+[…]/300+9×301−SecC/300 where H = hemorrhage; L = vessel lysis; C = coagulation; Hemorrhage time (Sec H) = onset of hemorrhage reactions on CAM (in sec); Lysis time (Sec L) = onset of vessel lysis on CAM (in sec); Coagulation time (Sec C) = onset of coagulation formation on CAM (in sec). The formula comprises a factor indicating the impact of the observed effect on vascular damage, e.g., coagulation has the highest impact expressed by the multiplication factor 9. The IS values range on a scale between 0 and 21.

As for 3-pyridinylidene-messagenin, the GI50 in data set [1] is 1000 to 2000 nM. On to `CC(=O)[C@@H]1CC[C@]2(C(=O)O)CC[C@]3(C)[C@H](CC[C@@H]4[C@@]5(C)CC[C@H](O)C(C)(C)[C@@H]5CC[C@]43C)[C@@H]12` [platanic acid], for which, in data set [2], the GI50 was > 50 µM. On to `CCCCCCCCCCCCOS(=O)(=O)[O-].[Na+]` [SLS 0.5%, sodium laurylsulphate, reference compound], for which, in data set [3], the “Type of Effect” value is on record as “Strong irritant”. For the compound “2,30-bis-(3-pyridinylidene)-platanic acid”, the GI50 in data set [1] is 1000 to 2000 nM.
